Test results reported in patent US7101692B2 (priority 1999, dated 2006).
“Also recorded” adds a separate entry of the source.

Tests used:
[1] = tested on: sorting reaction (sortase cleavage of Seb-Spa490-524 P2 precursor at the LPXTG motif); format: cell-based, S. aureus OS2
SrtADN [2] = target: T1, SrtADN (Staphylococcus aureus, UniProt Q2FV99); format: biochemical, S. aureus; conditions: absence of peptidoglycan substrate
Description: The N-terminal membrane anchor segment of […] (residues 2-25) were replaced with a six-histidine tag ([…]). In the absence of the peptidoglycan substrate, SrtA DN catalyzes peptide bond hydrolysis and cleaves LPETG peptide, presumably between the threonine and the glycine (Ton-That et al., 2000).

[3] = tested on: wild-type staphylococci, strains SM317 and SM329; format: cell-based, S. aureus
sortase = sortase (Staphylococcus aureus, UniProt Q2FV99); format: biochemical; conditions: pre-incubation of staphylococcal extracts with 5 mM MTSET
sortase, sequence (Q2FV99 whole entry): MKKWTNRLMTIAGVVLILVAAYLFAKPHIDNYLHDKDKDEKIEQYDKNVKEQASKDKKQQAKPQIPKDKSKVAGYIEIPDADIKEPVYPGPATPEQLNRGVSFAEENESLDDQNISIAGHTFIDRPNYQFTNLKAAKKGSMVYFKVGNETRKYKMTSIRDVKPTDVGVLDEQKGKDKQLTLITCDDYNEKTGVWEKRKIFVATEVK

[4] = tested on: S. aureus OS2 (pSeb-Spa490-524); format: cell-based
SrtADN [5] = target: T1, SrtADN; format: biochemical, S. aureus; conditions: 5 mM MTSET or 5 mM pHMB, 5 μM SrtADN
[6] = tested on: cell wall sorting reaction (surface protein anchoring); format: cell-based, S. aureus OS2
cell wall synthesis = format: cell-based, staphylococci (S. aureus OS2)
staphylococci = format: cell-based, S. aureus OS2

T1 sequence (Q2FV99 26-206): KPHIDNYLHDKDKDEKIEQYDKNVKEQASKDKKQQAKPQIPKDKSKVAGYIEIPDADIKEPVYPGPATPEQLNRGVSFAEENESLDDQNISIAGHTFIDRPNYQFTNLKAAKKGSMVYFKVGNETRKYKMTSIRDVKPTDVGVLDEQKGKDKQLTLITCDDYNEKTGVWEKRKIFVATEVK

Compound: OCCS [2-mercaptoethanol]
- interference with cleavage of sorting signals at the LPXTG motif / cell wall sorting (in words) [1]: did not affect the sorting reaction

Compound: O[C@H](CS)[C@H](O)CS (racemic) [dithiothreitol (DTT), dithiothreitol]
- interference with cleavage of sorting signals at the LPXTG motif / cell wall sorting (in words) [1]: did not affect the sorting reaction

Compound: methylmethane thiosulfonate
- inhibition of LPETG peptide cleavage (peptide bond hydrolysis) (SrtADN [2]): inhibited

Compound: lysostaphin
- growth inhibition by lysostaphin [3]: inhibited growth of wild-type staphylococci

Compound: C[N+](C)(C)CCSS(C)(=O)=O [[2-(trimethylammonium)ethyl]methanethiosulfonate]
- inhibition of LPXTG peptide cleavage (sortase): inhibited
- incorporation of [35S]methionine by staphylococci [4]: prevented incorporation
- protein export (Sec-dependent export of P1 precursor) [4]: remained unaltered
- inhibition of LPXTG peptide cleavage (SrtADN [5]): inhibited; also recorded: abolished all enzymatic activity
- interference with cleavage of sorting signals at the LPXTG motif / cell wall sorting (in words) [1]: interfered with the cleavage of sorting signals at the LPXTG motif

Compound: p-hydroxymercuribenzoic acid [p-hydroxymercuribenzoic acid (pHMB)]
- inhibition of LPXTG peptide cleavage (SrtADN [5]): inhibited
- interference with cleavage of sorting signals at the LPXTG motif / cell wall sorting (in words) [1]: displayed an inhibitory effect

Compound: NC(=O)CI [iodoacetamide]
- interference with cleavage of sorting signals at the LPXTG motif / cell wall sorting (in words) [1]: did not

Compound: penicillin
- [P2]/[M] [6]: 0.10 ± 0.01
- effect on rate of cell wall sorting (P2 precursor accumulation), in words [6]: did not alter the rate of cell wall sorting
- fold inhibition of cell wall synthesis (cell wall synthesis): 3.3 fold
- growth rate of staphylococci (staphylococci): reduced the growth rate

Compound: moenomycin
- [P2]/[M] [6]: 0.24 ± 0.04
- effect on rate of cell wall sorting (P2 precursor accumulation), in words [6]: similar, albeit weaker effect
- fold inhibition of cell wall synthesis (cell wall synthesis): 1.6 fold
- growth rate of staphylococci (staphylococci): reduced the growth rate

Compound: CN[C@H](CC(C)C)C(=O)N[C@H]1C(=O)N[C@@H](CC(N)=O)C(=O)N[C@H]2C(=O)N[C@H]3C(=O)N[C@H](C(=O)N[C@H](C(=O)O)c4cc(O)cc(O)c4-c4cc3ccc4O)[C@H](O)c3ccc(c(Cl)c3)Oc3cc2cc(c3O[C@@H]2O[C@H](CO)[C@@H](O)[C@H](O)[C@H]2O[C@H]2C[C@](C)(N)[C@H](O)[C@H](C)O2)Oc2ccc(cc2Cl)[C@H]1O [vancomycin]
- [P2]/[M] [6]: 0.47 ± 0.04
- effect on rate of cell wall sorting (P2 precursor accumulation), in words [6]: led to a steady accumulation of P2 precursor
- fold inhibition of cell wall synthesis (cell wall synthesis): 9.5 fold
- inhibition of cell wall synthesis (lysine/leucine ratio) (cell wall synthesis): 20 fold

Compound: O=C(O)CI [iodoacetic acid]
- interference with cleavage of sorting signals at the LPXTG motif / cell wall sorting (in words) [1]: did not

Compound: CS(=O)(=O)SCCS(=O)(=O)O [(2-sulfonatoethyl)methanethiosulfonate]
- interference with cleavage of sorting signals at the LPXTG motif / cell wall sorting (in words) [1]: interfered with sorting albeit not as effectively as MTSET

Compound: CCN1C(=O)C=CC1=O [N-ethylmaleimide]
- interference with cleavage of sorting signals at the LPXTG motif / cell wall sorting (in words) [1]: did not
